Measurements taken from patent US20090170844A1, “Spiro Tetracyclic Compound” (priority 2006, published 2009).

Assays:
[1] = target: T1, human FXa (Homo sapiens, UniProt P00742); assay: Measurement of the human FXa inhibitory action (synthetic substrate S-2222); type: biochemical; conditions: human FXa 0.019 U/ml, S-2222 0.4 mM, 37° C., pH 7.5
T1 construct: purchased Enzyme Research Laboratories, Inc
Protocol: In vitro FXa inhibitory activity may be measured according to the method of Kettner et al. (Journal of Biological Chemistry, vol. 265, pages 18289 to 18297, 1990). To be more specific, human FXa (product of Enzyme Research Laboratories, Inc., 0.019 U/ml) is mixed with the specimens (of the compound of the present invention) prepared by diluting the compound of the invention with dimethylsulfoxide (DMSO) to different concentrations and synthetic substrate S-2222 (Chromogenix AB, 0.4 mM), and the mixtures are incubated at 37° C. in Tris-hydrochloric acid buffer (pH 7.5). The FXa inhibitory activity of the specimen is calculated by measuring the absorbance at 405 nm.
It should be noted that the FXa inhibitory activity of the specimen is generally indicated as IC50.

[2] = system: human plasma; assay: Anticoagulant activity in vitro: intrinsic coagulation time (APTT); type: biochemical; conditions: APTT reagent, calcium chloride 25 mM
Protocol: Activated partial thromboplastin time (APTT) is measured in the presence of the test compounds of the present invention diluted at various concentrations. To be more specific, each of the test compounds diluted with DMSO at various concentrations is mixed with human plasma and APTT reagent. The mixture is incubated at 37° C. for 2 minutes; calcium chloride (25 mM) is added to the mixture; and the coagulation time is thereafter measured. It should be noted that the anticoagulant activity of the test compound is described in terms of the concentration required to double the coagulation time for the case where no test compound is added.

T1 sequence (P00742 235-488 limits assumed): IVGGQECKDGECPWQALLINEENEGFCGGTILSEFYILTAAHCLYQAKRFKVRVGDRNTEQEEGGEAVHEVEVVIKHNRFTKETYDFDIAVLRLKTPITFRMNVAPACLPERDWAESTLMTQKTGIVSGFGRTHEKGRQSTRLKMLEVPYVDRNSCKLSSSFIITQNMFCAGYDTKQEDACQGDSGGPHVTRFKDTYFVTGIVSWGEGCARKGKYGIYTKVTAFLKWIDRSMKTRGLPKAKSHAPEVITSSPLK
T1 sequence (P00742 41-179 partner limits assumed): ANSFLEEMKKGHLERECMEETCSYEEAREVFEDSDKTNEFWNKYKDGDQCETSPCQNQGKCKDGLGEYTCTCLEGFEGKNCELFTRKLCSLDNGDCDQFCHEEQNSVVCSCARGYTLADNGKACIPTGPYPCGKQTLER

Row | SMILES | IC50 [1] [nM] | Concentration when APTT was doubled [2] [µM]
1 | O=C1CN(S(=O)(=O)c2ccc3cc(Cl)ccc3c2)CC23CNC(=O)N2C2(CCN(C4=NCCO4)CC2)CN13 (racemic) [Example 2, (±)-3′,5′,8′,11′-tetraaza-11′-(6-chloronaphthalen-2-ylsulfonyl)-1-(2-oxazolinyl)spiro[piperidine-4,6′-tricyclo[6.4.0.0^1,5]dodecane]-4′,9′-dione] | 4.8 | 
2 | O=C1CN(S(=O)(=O)c2ccc3cc(Cl)ccc3c2)CC23CNC(=O)N2C2(CCN(c4cccnn4)CC2)CN13 (racemic) [Example 3, (±)-3′,5′,8′,11′-tetraaza-11′-(6-chloronaphthalen-2-ylsulfonyl)-1-(3-pyridazinyl)spiro[piperidine-4,6′-tricyclo[6.4.0.0^1,5]dodecane]-4′,9′-dione] | 4.1 | 
3 | CN1CN2C3(CCN(c4ccncc4)CC3)CN3C(=O)CN(S(=O)(=O)c4ccc5cc(Cl)ccc5c4)CC32C1 (racemic) [Example 5, (±)-3′,5′,8′,11′-tetraaza-11′-(6-chloronaphthalen-2-ylsulfonyl)-3′-methyl-1-(4-pyridyl)spiro[piperidine-4,6′-tricyclo[6.4.0.0^1,5]dodecan]-9′-one] | 4 | 
4 | CN1CC23CN(S(=O)(=O)c4ccc5cc(Cl)ccc5c4)CC(=O)N2CC2(CCN(C4=NCCCC4)CC2)N3C1=O (single isomer, unassigned; (-)) [Example 8, (−)-3′,5′,8′,11′-tetraaza-11′-(6-chloronaphthalen-2-ylsulfonyl)-1-(3,4,5,6-tetrahydropyridin-2-yl)-3′-methylspiro[piperidine-4,6′-tricyclo[6.4.0.0^1,5]dodecane]-4′,9′-dione] |  | 0.27
5 | CN1CC23CN(S(=O)(=O)c4cc5ccc(Cl)cc5s4)CC(=O)N2CC2(CCN(C4=NCCO4)CC2)N3C1=O (single isomer, unassigned; (-)) [Example 11, (−)-3′,5′,8′,11′-tetraaza-11′-(6-chlorobenzo[b]thiophen-2-ylsulfonyl)-3′-methyl-1-(2-oxazolinyl)spiro[piperidine-4,6′-tricyclo[6.4.0.0^1,5]dodecane]-4′,9′-dione] | 4.7 | 
6 | CN1CC23CN(S(=O)(=O)c4cc5ccc(Cl)cc5s4)CC(=O)N2CC2(CCN(C4=NCCCO4)CC2)N3C1=O (single isomer, unassigned; (-)) [Example 12, (−)-3′,5′,8′,11′-tetraaza-11′-(6-chlorobenzo[b]thiophen-2-ylsulfonyl)-1-(5,6-dihydro-4H-1,3-oxazin-2-yl)-3′-methylspiro[piperidine-4,6′-tricyclo[6.4.0.0^1,5]dodecane]-4′,9′-dione] |  | 0.34
7 | CN1CC23CN(S(=O)(=O)c4cc5ccc(Cl)cc5s4)CC(=O)N2CC2(CCN(C4=NCCCC4)CC2)N3C1=O (single isomer, unassigned; (-)) [Example 14, (−)-3′,5′,8′,11′-tetraaza-11′-(6-chlorobenzo[b]thiophen-2-ylsulfonyl)-1-(3,4,5,6-tetrahydropyridin-2-yl)-3′-methylspiro[piperidine-4,6′-tricyclo[6.4.0.0^1,5]dodecane]-4′,9′-dione] | 3.6 | 0.24
8 | CN1CC23CN(S(=O)(=O)c4cc5cc(Cl)ccc5[nH]4)CC(=O)N2CC2(CCN(C4=NCCO4)CC2)N3C1=O (single isomer, unassigned; (-)) [Example 17, (−)-3′,5′,8′,11′-tetraaza-11′-(5-chloro-1H-indol-2-ylsulfonyl)-3′-methyl-1-(2-oxazolinyl)spiro[piperidine-4,6′-tricyclo[6.4.0.0^1,5]dodecane]-4′,9′-dione] | 0.4 | 
9 | CN1CC23CN(S(=O)(=O)c4cc5cc(Cl)ccc5[nH]4)CC(=O)N2CC2(CCN(C4=NCCCO4)CC2)N3C1=O (single isomer, unassigned; (-)) [Example 18, (−)-3′,5′,8′,11′-tetraaza-11′-(5-chloro-1H-indol-2-ylsulfonyl)-1-(5,6-dihydro-4H-1,3-oxazin-2-yl)-3′-methylspiro[piperidine-4,6′-tricyclo[6.4.0.0^1,5]dodecane]-4′,9′-dione] | 4.3 | 0.26
10 | CN1CC23CN(S(=O)(=O)c4cc5cc(Cl)ccc5[nH]4)CC(=O)N2CC2(CCN(C4=NCCCC4)CC2)N3C1=O (single isomer, unassigned; (-)) [Example 20, (−)-3′,5′,8′,11′-tetraaza-11′-(5-chloro-1H-indol-2-ylsulfonyl)-1-(3,4,5,6-tetrahydropyridin-2-yl)-3′-methylspiro[piperidine-4,6′-tricyclo[6.4.0.0^1,5]dodecane]-4′,9′-dione] | 3 | 0.24
11 | CCC(=O)N1CCC2(CC1)CN1C(=O)CN(S(=O)(=O)c3cc4cc(Cl)ccc4[nH]3)CC13CN(C)C(=O)N23 (single isomer, unassigned; (-)) [Example 22, (−)-3′,5′,8′,11′-tetraaza-11′-(5-chloro-1H-indol-2-ylsulfonyl)-3′-methyl-1-propionylspiro[piperidine-4,6′-tricyclo[6.4.0.0^1,5]dodecane]-4′,9′-dione] | 4 | 
12 | CN1CC23CN(S(=O)(=O)c4ccc5cc(Cl)ccc5c4)CC(=O)N2CC2(CCN(C4=NCCO4)CC2)N3C1=O (single isomer, unassigned; (-)) [Example 29, (−)-3′,5′,8′,11′-tetraaza-11′-(6-chloronaphthalen-2-ylsulfonyl)-3′-methyl-1-(2-oxazolinyl)spiro[piperidine-4,6′-tricyclo[6.4.0.0^1,5]dodecane]-4′,9′-dione] | 2.4 | 
